Assay results: the NIST ThermoML archive (doi:10.1016/j.fluid.2015.07.017)
± gives the expanded uncertainty stated by the source.

Columns and labels:
[1] = Boiling temperature at pressure P; details: Liquid, Ebulliometric method (Recirculating still)
[2] = 293.15 K; 101.33 kPa; Liquid; Pycnometric method
[3] = refractive index (Na D-line) (dimensionless); details: 298.15 K; 101.33 kPa; Liquid; Standard Abbe refractometry

Boiling temperature at pressure P ([1]; 8.17 kPa) [°C] | Boiling temperature at pressure P ([1]; 12.41 kPa) [°C] | Boiling temperature at pressure P ([1]; 18.11 kPa) [°C] | Boiling temperature at pressure P ([1]; 26.67 kPa) [°C] | Boiling temperature at pressure P ([1]; 36.4 kPa) [°C] | Boiling temperature at pressure P ([1]; 44.6 kPa) [°C] | Boiling temperature at pressure P ([1]; 53.33 kPa) [°C] | Boiling temperature at pressure P ([1]; 59.35 kPa) [°C] | Boiling temperature at pressure P ([1]; 69.65 kPa) [°C] | Boiling temperature at pressure P ([1]; 79.9 kPa) [°C] | Boiling temperature at pressure P ([1]; 87.9 kPa) [°C] | Boiling temperature at pressure P ([1]; 94.9 kPa) [°C] | Boiling temperature at pressure P ([1]; 101.33 kPa) [°C] | Boiling temperature at pressure P ([1]; 112 kPa) [°C] | mass density [2] [kg/m3] | refractive index [3] | SMILES
29.97 ± 0.11 | 38.00 ± 0.11 | 46.03 ± 0.1 | 54.81 ± 0.1 | 62.67 ± 0.1 | 68.11 ± 0.1 | 73.17 ± 0.1 | 76.2 ± 0.1 | 81.07 ± 0.1 | 85.2 ± 0.1 | 88.33 ± 0.1 | 90.82 ± 0.1 | 92.97 ± 0.1 | 96.14 ± 0.1 | 841.4 ± 0.8 | 1.3757 ± 0.0007 | CCCOCOC [1-(methoxymethoxy)propane]
 |  |  |  |  |  |  |  |  |  |  |  | 64.71 ± 0.1 |  | 791.1 ± 0.7 | 1.3269 ± 0.0007 | CO [methanol]
 |  |  |  |  |  |  |  |  |  |  |  | 97.20 ± 0.1 |  | 803.7 ± 0.7 | 1.3836 ± 0.0007 | CCCO [propan-1-ol]
